Laboratory results: US11840525B2, “Use of AURKB small-molecule inhibitors for treatment of non-small cell lung cancer” (Nanjing China-Australia Institute of Translational Medicine …, priority 2016, dated 2023)
Where two headings read alike, the source gives them in different places.

Key:
A549 cells [1] = test: CCK-8 growth inhibition of A549 lung cancer cells; type: cell-based; details: Homo sapiens
Description: (§1) Lung cancer cells A549 were separated into a 96-well plate and respectively added with 10 mM TZ47 stock solution to final concentrations of 0 μM, 0.1 μM, 0.5 μM, 1 μM, 2 μM, 4 μM and 8 μM in respective wells. Then the 96-well plate was incubated at 37° C. for 48 h and the growth of the cells was analyzed by a CCK-8 method. […] It can be seen from Table 1 that TZ47 also plays a desirable role in inhibiting the growth of other cancer cells including colorectal cancer, leukemia, liver cancer, melanoma, breast cancer and ovarian cancer.

SW480 = test: Growth inhibition of tumor cells, SW480; type: cell-based; details: Homo sapiens, read-out: IC50 against tumor cells, SW480
Description: as §1

HepG-2 = test: Growth inhibition of tumor cells, HepG-2; type: cell-based; details: Homo sapiens, HepG2; read-out: IC50 against tumor cells, HepG-2
Description: as §1

[2] = test system: H3S10 phosphorylation in A549 cells; test: Western blot of histone modifications in A549 cells; type: cell-based
A549 cells [3] = test: Colony formation assay; type: cell-based; details: 2 μM, 2 weeks
gene E2F2 in A549 cells = test: E2F2 expression in A549 cells (real-time quantitative PCR, Western blot); type: cell-based
A549 cells [4] = test: Apoptosis of A549 cells by flow cytometry; type: cell-based; details: flow cytometer
Source text: To elucidate how TZ47 induced the cell death, a flow cytometer was applied to measure and analyze the apoptosis of cells in solvent (DMSO) control group and the treatment groups with different gradients of TZ47 in the use of a cell apoptosis detection kit.

A549 cells [5] = test: Autophagy of A549 cells (LC3 western blot); type: cell-based; details: increasing concentration of TZ47
A549 xenograft = test: A549 heterotopic xenograft in nude mice; type: in vivo; details: 150 mg/kg
Description: The lung-cancer mouse model was constructed to test the effect of TZ47 on tumor proliferation in vivo. First, A549 cells were inoculated into the mice at the left axilla. When the tumor was proliferated to 100 mm^3, the mice were treated with TZ47 (150 mg/kg), and the weight, tumor volume and diet were observed and recorded. In the sixth week, the mice were anesthetized, and the tumors were photographed and recorded. […] The mice were quickly sacrificed through the dislocation of cervical vertebra, and the solid tumor was collected and weighed.
Next, part of the solid tumor was extracted for the immunohistochemistry assay. […] The solid tumor protein was lysed and analyzed by western blot assay.

Compound: c1ccc2c(Cc3[nH]c4ccccc4c3Cc3c[nH]c4ccccc34)c[nH]c2c1 [TZ47]
- IC50 (A549 cells [1]; CCK-8, 48 h, read-out: IC50 of TZ47 against A549): 730 nM
- IC50 (A549 cells [1]; read-out: IC50 against tumor cells, A549): 730 ± 240 nM
- IC50 (SW480): 9430 ± 340 nM
- IC50 (HepG-2): 2180 ± 120 nM
- degradation of AURKB protein in A549 cells ([2]; 48 h): did not mediate the degradation
- labeling of other histone residues close to H3S10 ([2]; A549 cells): failed to affect
- phosphorylation level of H3S10 in A549 cells ([2]; different concentrations, 48 h): significantly reduced
- colony formation in control cells (A549 cells [3]): significantly inhibited
- E2F2 protein level (gene E2F2 in A549 cells; Western blot): reduced
- expression level of gene E2F2 (mRNA) (gene E2F2 in A549 cells; real-time quantitative PCR): significantly reduced
- apoptosis, 1 μM and 2 μM treatment groups (A549 cells [4]; 1 μM and 2 μM): no significant difference
- proportion of early apoptotic cells (A549 cells [4]; 4 μM): significantly increased
- degree of cell autophagy (A549 cells [5]): increased significantly
- behavior, diet and weight of the mice versus control group (A549 xenograft): no significant difference
- HE staining of solid tumor (A549 xenograft; also verified with Ki-67): large quantity of necrotic tissues
- tumor volume versus solvent control group (A549 xenograft; sixth week): significantly smaller
- solid tumor weight (tumor growth in vivo) (A549 xenograft; tumor collected and weighed): significant activity in inhibiting the tumor growth
- expression level of AURKB protein in solid tumor (A549 xenograft; western blot of tumor): did not affect
- H3S10 ph modification level in solid tumor (A549 xenograft; western blot of tumor, P<0.05): significantly reduced
